A short description of series [1]: Stability of metal ions in vitro and in vivo. Format: physicochemical.
In series [2] the test system is macrophages (RAW264.7). The series can be described thus: Transwell detection of the promotion of macrophage migration by metal ions. Format: cell-based, mouse. The following applies: for ability to promote the migration of macrophages: liver cancer cells in lower chamber, metal ions 0, 500, 1000, 2000 μM, RAW264.7 in upper chamber. From the text: This example provides the establishment and validation of a platform for screening metal ions that promotes the migration of immune cells. A specific method is described below. • 1. Preparation of metal ions: metal compounds such as zinc chloride, potassium chloride, magnesium chloride, manganese chloride, anhydrous calcium chloride, aluminium sulfate (octadecahydrate), anhydrous copper(II) chloride, anhydrous iron(III) chloride, iron(II) chloride, chromium(III) chloride hexahydrate and anhydrous cobalt(II) chloride were prepared into solutions ranging from 0 μM to 2000 μM using normal saline, respectively. • 2. Preparation of BM-DCs (bone marrow-derived dendritic cells), RAW264.7 (mouse monocytic leukemia macrophage cells) and mouse spleen lymphocytes • (1) Acquisition of mouse BM-DCs: bone marrow was taken from hind limbs of […] mice, and treated with a red blood cell lysis buffer to remove red blood cells; bone marrow cells (4×10^6 cells) were cultured in a 10 cm culture dish, and 10% FBS, mercaptoethanol (2-ME, 0.8 ng/ml, Sigma) and mouse granulocyte-macrophage colony-stimulating factor (GM-CSF, 20 ng/mL, PeproTech) were added to a DMEM medium and cultured for 7 days; expression levels of CD11c, CD80 and CD86 in cells were detected using antibodies and a flow cytometer. • (2) Mouse macrophages RAW264.7: derived from a cell bank of the Chinese Academy of Sciences and cultured. • (3) Mouse spleen lymphocytes: spleens of C57BL/6 mice were acquired and filtered by a screen into single cells, treated with a red blood cell lysis buffer to remove red blood cells, and centrifuged with lymphocyte isolation solution to isolate the cells for in vitro culture. • 3. Transwell detection of the promotion of the migration of immune cells by metal ions
Liver cancer cells were placed in lower chambers (12 wells) of a Transwell plate, and the above metal ion solutions with different concentrations (0 μM, 500 μM, 1000 μM and 2000 μM) were added to the lower chambers, respectively. After 24 h, the BM-DCs, the RAW264.7 cells and the spleen lymphocytes were placed in upper chambers (2×10^4 cells/well) of the Transwell plate, respectively. The cells were co-cultured for a certain period of time, and nylon membranes of the chambers were taken and stained to observe the migration of the cells.

Series [3] concerns RAW264.7 cells. Nature of the series: CCK-8 assay of toxicity of metal ions. The settings on record: 0-200 μg/mL metal ions, 24 h. Format: cell-based, mouse. On the procedure:
Toxicities of metal ions with different concentrations on RAW264.7 cells were quantified through a CCK-8 assay. Specific steps are as follows: RAW264.7 cells (2×10^4 cells/well, n=4) were inoculated in a 96-well plate, stayed for a whole night and cultured by media containing metal ions with different concentrations (0 μg/mL, 25 μg/mL, 50 μg/mL, 100 μg/mL and 200 μg/mL) for 24 h, respectively, and cell viability was measured through CCK-8.

The subject of series [4] is PI3K/AKT/mTOR pathway. The series can be described thus: Protein immunoblotting of the PI3K/Akt/mTOR pathway in RAW264.7 cells. Format: cell-based, mouse. On the procedure: (§1) Cr^3+ with different concentrations (0 μg/mL, 50 μg/mL, 100 μg/mL and 200 μg/mL) was co-incubated with RAW264.7 cells (1×10^6 cells/well) for 48 h. Cell supernatants and protein samples were collected, and various types of […] including MIP-la were detected through ELISA. The expression of various proteins in a PI3K/Akt/mTOR pathway was detected through protein immunoblotting.
(Immunoblotting shows a protein as a band on a membrane.)

Series [5] deals with IR tyrosine kinases (Homo sapiens, UniProt P06213). The settings on record: background statement; cited from earlier work.
Series [6] relates to MIP-1α secretion in RAW264.7 cells. The series can be described thus: ELISA of MIP-1α secretion in RAW264.7 cells. The settings on record: Cr^3+ 0, 50, 100, 200 μg/mL, 48 h. Format: cell-based, mouse. The procedure:
as §1
Background: ELISA stands for enzyme-linked immunosorbent assay.

Series [7] relates to subcutaneous melanoma (B16F10 cells). Nature of the series: Growth of subcutaneous melanoma in B16F10 tumor-bearing mice. The following applies: B16F10 tumor-bearing C57BL/6 mice, vein injection twice at 4-day interval; BMS-202 0.1 mg/mouse, Cr^3+ 100 μg/mL 100 μL, 12 days. Format: in vivo. The text has this:
A batch of SPF C57BL/6 mice (6 weeks old) were purchased from a company. B16F10 cells were selected as subcutaneous tumor model cells. 5×10^5 B16F10 cells were inoculated on a right side of a dorsal flank of each mouse and cultured for 13 days. When tumor volumes reached 100-200 mm^3, the modeling was successful. The obtained tumor-bearing mice can be used for a subsequent in vivo experiment. Animal experiments all comply with requirements for animal protection ethics and welfare.
The successfully constructed B16 tumor-bearing mice were divided into four groups: a CrCl3 experimental group (amount of chromium ions: 100 μg/mL, 100 μL), a BMS experimental group (0.1 mg/mouse), a CrCl3+BMS experimental group (100 μg/mL, 100 μL CrCl3+0.1 mg BMS/mouse) and a control group (normal saline, 100 μL) (n=3 for each group). On the first day, CrCl3, BMS and CrCl3+BMS were injected into veins of mice in different groups, respectively. […] Tumor growth was monitored every two days by a digital caliper with a tumor volume calculation formula of ½×L×W^2. On the 12th day of treatment, the mice were euthanatized.

Sequence of IR tyrosine kinases (P06213 28-1382): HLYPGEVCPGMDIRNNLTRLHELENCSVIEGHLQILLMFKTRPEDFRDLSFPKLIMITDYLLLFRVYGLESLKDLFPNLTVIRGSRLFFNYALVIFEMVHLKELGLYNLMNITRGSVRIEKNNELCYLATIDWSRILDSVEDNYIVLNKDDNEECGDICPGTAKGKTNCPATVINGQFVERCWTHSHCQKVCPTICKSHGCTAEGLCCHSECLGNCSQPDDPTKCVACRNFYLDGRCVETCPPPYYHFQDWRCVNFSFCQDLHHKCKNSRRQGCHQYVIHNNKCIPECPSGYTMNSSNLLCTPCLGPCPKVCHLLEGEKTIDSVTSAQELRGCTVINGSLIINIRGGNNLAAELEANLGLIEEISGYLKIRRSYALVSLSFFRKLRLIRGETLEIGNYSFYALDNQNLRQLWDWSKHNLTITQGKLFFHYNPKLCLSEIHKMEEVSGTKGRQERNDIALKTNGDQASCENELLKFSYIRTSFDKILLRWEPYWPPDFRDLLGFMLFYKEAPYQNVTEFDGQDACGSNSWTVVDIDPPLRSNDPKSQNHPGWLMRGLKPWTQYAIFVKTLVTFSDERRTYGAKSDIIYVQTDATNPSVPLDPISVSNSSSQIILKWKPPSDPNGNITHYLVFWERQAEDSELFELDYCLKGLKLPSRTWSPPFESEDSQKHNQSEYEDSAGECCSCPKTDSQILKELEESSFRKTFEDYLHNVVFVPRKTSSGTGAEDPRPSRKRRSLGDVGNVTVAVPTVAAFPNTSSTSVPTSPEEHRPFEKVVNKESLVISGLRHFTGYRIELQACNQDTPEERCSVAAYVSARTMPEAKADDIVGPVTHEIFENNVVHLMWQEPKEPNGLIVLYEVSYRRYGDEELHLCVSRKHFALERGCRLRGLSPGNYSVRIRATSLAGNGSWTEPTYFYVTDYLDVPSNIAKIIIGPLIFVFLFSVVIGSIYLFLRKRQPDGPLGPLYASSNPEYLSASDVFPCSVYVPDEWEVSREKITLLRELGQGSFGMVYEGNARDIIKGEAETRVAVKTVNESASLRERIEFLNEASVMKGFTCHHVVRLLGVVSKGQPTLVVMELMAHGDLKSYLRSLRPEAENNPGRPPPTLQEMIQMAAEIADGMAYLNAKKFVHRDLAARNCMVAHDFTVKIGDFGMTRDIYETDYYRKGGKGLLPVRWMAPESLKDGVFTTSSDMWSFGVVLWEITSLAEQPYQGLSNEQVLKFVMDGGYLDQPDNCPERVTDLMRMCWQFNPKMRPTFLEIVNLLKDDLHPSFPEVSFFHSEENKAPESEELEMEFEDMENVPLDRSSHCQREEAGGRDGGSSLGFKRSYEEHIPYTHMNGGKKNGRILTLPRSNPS

For the compound `[Cl][Fe][Cl]` [Fe^2+, iron(II) chloride, reference compound], the “stability in vitro and in vivo” value in series [1] is “poor stability in vitro and in vivo and is easily oxidized to Fe^3+”. Also, the “ability to promote the migration of macrophages” value (“ability to promote the migration” below) in series [2] was “have an ability to promote the migration of macrophages”.
In the case of `[Cl][Cu][Cl]` [Cu^2+, anhydrous copper(II) chloride, reference compound], the “ability to promote the migration” value in series [2] was “have an ability to promote the migration of macrophages”. The “toxicity on RAW264.7 cells (cell viability, CCK-8)” value in series [3] was “relatively high cytotoxicity”.
Take `O.O.O.O.O.O.[Cl][Cr]([Cl])[Cl]` [Cr^3+, chromium(III) chloride hexahydrate]: the “activation of the PI3K/AKT/mTOR pathway” value in series [4] is recorded as “can activate the PI3K/AKT/mTOR pathway”. For the same compound, the “expression of AKT and phosphorylated AKT (pAKT)” value in series [4] (48 h) is “induces high expression”. The “migration promoting effect on macrophages” value in series [2] (Cr^3+ between 0 μM and 2000 μM) was “significant migration promoting effect”. Further, in series [2], the “ability to promote the migration” value is “have an ability to promote the migration of macrophages”. For the same compound, the “toxicity on RAW264.7 cells (cell viability, CCK-8)” value in series [3] was “good biocompatibility (low biological toxicity)”. The “enhancement of the activity of IR tyrosine kinases” value in series [5] is recorded as “six times”. Besides, the “secretion of MIP-1α” value in series [6] is on record as “significantly increased”. In addition, the “effect on tumor growth of subcutaneous melanoma” value in series [7] is recorded as “no significant limiting effect on the tumor growth”.
For `COc1nc(OCc2cccc(-c3ccccc3)c2C)ccc1CNCCNC(C)=O` [BMS-202, reference compound], in series [7], the “effect on tumor growth of subcutaneous melanoma” value is listed as “no significant limiting effect on the tumor growth”.

The values above are taken from patent US20260240903A1, “USE OF TRIVALENT CHROMIUM IONS AND/OR METAL CHROMIUM IN PREPARATION OF DRUG FOR IMMUNOTHERAPY OF TUMORS” (SHENZHEN LUOHU PEOPLE'S HOSPITAL, priority 2023, published 2026).
